Key:
[1] = system: ABUTH Velvetleaf; assay: Postemergence herbicidal evaluation, ABUTH; type: in vivo, Abutilon theophrasti, Medic.; settings: postemergence spray, rated about two-three weeks after treatment
In short: (§1)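 Two-week-old seedlings sprayed postemergence with compound in 80/20 acetone/water plus 1.0% methylated seed oil, at about 0.006–0.400 kg/ha, through a nozzle at 40 psi. Plants kept under greenhouse conditions and visually rated about two–three weeks after treatment; ratings from repeat tests averaged.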

[2] = system: AMBEL Ragweed, Common; assay: Postemergence herbicidal evaluation, AMBEL; type: in vivo, Ambrosia artemisifolia, L.; settings: postemergence spray, rated about two-three weeks after treatment
In short: as §1

[3] = system: CASOB Sicklepod; assay: Postemergence herbicidal evaluation, CASOB; type: in vivo, Cassia obtusifolia, L.; settings: postemergence spray, rated about two-three weeks after treatment
In short: as §1

[4] = system: CHEAL Lambsquarters, Common; assay: Postemergence herbicidal evaluation, CHEAL; type: in vivo, Chenopodium album, L.; settings: postemergence spray, rated about two-three weeks after treatment
In short: as §1

[5] = system: ECHOG Barnyardgrass; assay: Postemergence herbicidal evaluation, ECHOG; type: in vivo, Echinochloa crus-galli, (L.) Beau; settings: postemergence spray, rated about two-three weeks after treatment
In short: as §1

[6] = system: GALAP Galium; assay: Postemergence herbicidal evaluation, GALAP; type: in vivo, Galium aparine; settings: postemergence spray, rated about two-three weeks after treatment
In short: as §1

[7] = system: IPOHE Morningglory, Ivyleaf; assay: Postemergence herbicidal evaluation, IPOHE; type: in vivo, Ipomoea hederacea, (L.) Jacq.; settings: postemergence spray, rated about two-three weeks after treatment
In short: as §1

[8] = system: SETVI Foxtail, Green; assay: Postemergence herbicidal evaluation, SETVI; type: in vivo, Setaria viridis, (L.) Beau; settings: postemergence spray, rated about two-three weeks after treatment
In short: as §1

[9] = system: GLXMAW Soybean, Williams; assay: Postemergence herbicidal evaluation, GLXMAW; type: in vivo, Glycine max, (L.) Merr. cv Williams; settings: postemergence spray, rated about two-three weeks after treatment
In short: as §1

[10] = system: TRZAWR Wheat, Winter, cv Riband; assay: Postemergence herbicidal evaluation, TRZAWR; type: in vivo, Triticum aestivum; settings: postemergence spray, rated about two-three weeks after treatment
In short: as §1

[11] = system: ORYSAT Rice, Tebonnet; assay: Postemergence herbicidal evaluation, ORYSAT; type: in vivo, Oryza sativa, (L.); settings: postemergence spray, rated about two-three weeks after treatment
In short: as §1

[12] = system: ZEAMX Corn, Field; assay: Postemergence herbicidal evaluation, ZEAMX; type: in vivo, Zea mays, L. (Sammel-Bezeichnung); settings: postemergence spray, rated about two-three weeks after treatment
In short: as §1

[13] = system: ABUTH Velvetleaf; assay: Preemergence herbicidal evaluation, ABUTH; type: in vivo, Abutilon theophrasti, Medic.; settings: preemergence
In short: (§2)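 Compound applied preemergence as an aqueous acetone spray onto freshly planted cups, dose equivalent approx. 0.013 to 0.800 kg/ha. Evaluation by rating at weeks 4–5.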

[14] = system: AMBEL Ragweed, Common; assay: Preemergence herbicidal evaluation, AMBEL; type: in vivo, Ambrosia artemisifolia, L.; settings: preemergence
In short: as §2

[15] = system: CASOB Sicklepod; assay: Preemergence herbicidal evaluation, CASOB; type: in vivo, Cassia obtusifolia, L.; settings: preemergence
In short: as §2

[16] = system: CHEAL Lambsquarters, Common; assay: Preemergence herbicidal evaluation, CHEAL; type: in vivo, Chenopodium album, L.; settings: preemergence
In short: as §2

[17] = system: ECHOG Barnyardgrass; assay: Preemergence herbicidal evaluation, ECHOG; type: in vivo, Echinochloa crus-galli, (L.) Beau; settings: preemergence
In short: as §2

[18] = system: GALAP Galium; assay: Preemergence herbicidal evaluation, GALAP; type: in vivo, Galium aparine; settings: preemergence
In short: as §2

[19] = system: IPOHE Morningglory, Ivyleaf; assay: Preemergence herbicidal evaluation, IPOHE; type: in vivo, Ipomoea hederacea, (L.) Jacq.; settings: preemergence
In short: as §2

[20] = system: SETVI Foxtail, Green; assay: Preemergence herbicidal evaluation, SETVI; type: in vivo, Setaria viridis, (L.) Beau; settings: preemergence
In short: as §2

[21] = system: GLXMAW Soybean, Williams; assay: Preemergence herbicidal evaluation, GLXMAW; type: in vivo, Glycine max, (L.) Merr. cv Williams; settings: preemergence
In short: as §2

[22] = system: TRZAWR Wheat, Winter, cv Riband; assay: Preemergence herbicidal evaluation, TRZAWR; type: in vivo, Triticum aestivum; settings: preemergence
In short: as §2

[23] = system: ORYSAT Rice, Tebonnet; assay: Preemergence herbicidal evaluation, ORYSAT; type: in vivo, Oryza sativa, (L.); settings: preemergence
In short: as §2

[24] = system: ZEAMX Corn, Field; assay: Preemergence herbicidal evaluation, ZEAMX; type: in vivo, Zea mays, L. (Sammel-Bezeichnung); settings: preemergence
In short: as §2

COC(=O)COc1ccc(C)cc1-n1nnc2cc(F)c(-n3c(=O)cc(C(F)(F)F)n(C)c3=O)cc21 [Example 34]
1.5: GLXMAW herbicidal rating ([21]; rate 0.062 kg/ha)
6.0: AMBEL herbicidal rating ([14]; rate 0.062 kg/ha) | CASOB herbicidal rating ([15]; rate 0.125 kg/ha) | SETVI herbicidal rating ([20]; rate 0.032 kg/ha)
0.5: ZEAMX herbicidal rating ([24]; rate 0.032 kg/ha)
7.0: Postemergence herbicidal rating ECHCG ([5]; 0.008 kg/ha) | Postemergence herbicidal rating GLXMAW ([9]; 0.032 kg/ha) | Postemergence herbicidal rating GLXMAW ([9]; 0.062 kg/ha) | Postemergence herbicidal rating TRZAWR ([10]; 0.032 kg/ha) | Postemergence herbicidal rating ZEAMX ([12]; 0.008 kg/ha) | GALAP herbicidal rating ([18]; rate 0.125 kg/ha) | SETVI herbicidal rating ([20]; rate 0.016 kg/ha)
4.0: Postemergence herbicidal rating GALAP ([6]; 0.032 kg/ha) | Postemergence herbicidal rating GALAP ([6]; 0.062 kg/ha) | Postemergence herbicidal rating ORYSAT ([11]; 0.016 kg/ha) | ECHCG herbicidal rating ([17]; rate 0.016 kg/ha) | ZEAMX herbicidal rating ([24]; rate 0.125 kg/ha)
7.5: Postemergence herbicidal rating ORYSAT ([11]; 0.062 kg/ha) | Postemergence herbicidal rating ZEAMX ([12]; 0.016 kg/ha) | ECHCG herbicidal rating ([17]; rate 0.125 kg/ha)
9.0: Postemergence herbicidal rating ABUTH ([1]; 0.008 kg/ha) | Postemergence herbicidal rating ABUTH ([1]; 0.016 kg/ha) | Postemergence herbicidal rating ABUTH ([1]; 0.032 kg/ha) | Postemergence herbicidal rating ABUTH ([1]; 0.062 kg/ha) | Postemergence herbicidal rating AMBEL ([2]; 0.032 kg/ha) | Postemergence herbicidal rating AMBEL ([2]; 0.062 kg/ha) | Postemergence herbicidal rating CHEAL ([4]; 0.062 kg/ha) | Postemergence herbicidal rating ECHCG ([5]; 0.016 kg/ha) | Postemergence herbicidal rating ECHCG ([5]; 0.032 kg/ha) | Postemergence herbicidal rating ECHCG ([5]; 0.062 kg/ha) | Postemergence herbicidal rating IPOHE ([7]; 0.008 kg/ha) | Postemergence herbicidal rating IPOHE ([7]; 0.016 kg/ha) | Postemergence herbicidal rating IPOHE ([7]; 0.032 kg/ha) | Postemergence herbicidal rating IPOHE ([7]; 0.062 kg/ha) | Postemergence herbicidal rating SETVI ([8]; 0.008 kg/ha) | Postemergence herbicidal rating SETVI ([8]; 0.016 kg/ha) | Postemergence herbicidal rating SETVI ([8]; 0.032 kg/ha) | Postemergence herbicidal rating SETVI ([8]; 0.062 kg/ha) | Postemergence herbicidal rating ZEAMX ([12]; 0.062 kg/ha) | ABUTH herbicidal rating ([13]; rate 0.016 kg/ha) | ABUTH herbicidal rating ([13]; rate 0.032 kg/ha) | ABUTH herbicidal rating ([13]; rate 0.062 kg/ha) | ABUTH herbicidal rating ([13]; rate 0.125 kg/ha) | CHEAL herbicidal rating ([16]; rate 0.016 kg/ha) | CHEAL herbicidal rating ([16]; rate 0.032 kg/ha) | CHEAL herbicidal rating ([16]; rate 0.062 kg/ha) | CHEAL herbicidal rating ([16]; rate 0.125 kg/ha) | IPOHE herbicidal rating ([19]; rate 0.032 kg/ha) | IPOHE herbicidal rating ([19]; rate 0.125 kg/ha) | SETVI herbicidal rating ([20]; rate 0.062 kg/ha) | SETVI herbicidal rating ([20]; rate 0.125 kg/ha)
6.5: Postemergence herbicidal rating GLXMAW ([9]; 0.016 kg/ha) | Postemergence herbicidal rating ORYSAT ([11]; 0.032 kg/ha)
2.5: CASOB herbicidal rating ([15]; rate 0.062 kg/ha) | ORYSAT herbicidal rating ([23]; rate 0.032 kg/ha)
1.0: Postemergence herbicidal rating CASOB ([3]; 0.032 kg/ha) | AMBEL herbicidal rating ([14]; rate 0.016 kg/ha) | GLXMAW herbicidal rating ([21]; rate 0.016 kg/ha) | GLXMAW herbicidal rating ([21]; rate 0.032 kg/ha) | TRZAWR herbicidal rating ([22]; rate 0.016 kg/ha) | TRZAWR herbicidal rating ([22]; rate 0.032 kg/ha) | TRZAWR herbicidal rating ([22]; rate 0.062 kg/ha) | ORYSAT herbicidal rating ([23]; rate 0.016 kg/ha)
8.0: Postemergence herbicidal rating TRZAWR ([10]; 0.062 kg/ha) | AMBEL herbicidal rating ([14]; rate 0.125 kg/ha)
8.5: Postemergence herbicidal rating ZEAMX ([12]; 0.032 kg/ha)
5.0: Postemergence herbicidal rating CASOB ([3]; 0.062 kg/ha) | Postemergence herbicidal rating GLXMAW ([9]; 0.008 kg/ha) | Postemergence herbicidal rating TRZAWR ([10]; 0.008 kg/ha) | Postemergence herbicidal rating TRZAWR ([10]; 0.016 kg/ha) | AMBEL herbicidal rating ([14]; rate 0.032 kg/ha) | ECHCG herbicidal rating ([17]; rate 0.062 kg/ha) | IPOHE herbicidal rating ([19]; rate 0.062 kg/ha) | ORYSAT herbicidal rating ([23]; rate 0.125 kg/ha)
3.0: Postemergence herbicidal rating AMBEL ([2]; 0.016 kg/ha) | Postemergence herbicidal rating CHEAL ([4]; 0.016 kg/ha) | Postemergence herbicidal rating CHEAL ([4]; 0.032 kg/ha) | Postemergence herbicidal rating GALAP ([6]; 0.016 kg/ha) | Postemergence herbicidal rating ORYSAT ([11]; 0.008 kg/ha) | TRZAWR herbicidal rating ([22]; rate 0.125 kg/ha) | ORYSAT herbicidal rating ([23]; rate 0.062 kg/ha)
2.0: Postemergence herbicidal rating CHEAL ([4]; 0.008 kg/ha) | CASOB herbicidal rating ([15]; rate 0.032 kg/ha) | ECHCG herbicidal rating ([17]; rate 0.032 kg/ha) | GLXMAW herbicidal rating ([21]; rate 0.125 kg/ha)
3.5: ZEAMX herbicidal rating ([24]; rate 0.062 kg/ha)
0.0: Postemergence herbicidal rating AMBEL ([2]; 0.008 kg/ha) | Postemergence herbicidal rating CASOB ([3]; 0.008 kg/ha) | Postemergence herbicidal rating CASOB ([3]; 0.016 kg/ha) | Postemergence herbicidal rating GALAP ([6]; 0.008 kg/ha) | GALAP herbicidal rating ([18]; rate 0.016 kg/ha) | GALAP herbicidal rating ([18]; rate 0.032 kg/ha) | GALAP herbicidal rating ([18]; rate 0.062 kg/ha) | ZEAMX herbicidal rating ([24]; rate 0.016 kg/ha)
